IC50 data for 16 compounds are collected here from patent US20240391931A1 (Bristol-Myers Squibb Company, priority 2021, published 2024).

The structures appear in SMILES notation.

The target of test [1] is T1, EGFR WT (Homo sapiens, UniProt P00533).
T1 construct: purchased Thermo Fisher, Carlsbad, CA ERBB1 PR7295B
As to the kind of experiment: Enzymatic assay EGFR WT (method c). Particulars: [EGFR WT]=2 nM, [ATP]=1 mM, [Peptide 22]=1 μM. Format: biochemical. The gist of the method: (§1)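 Microfluidic mobility-shift kinase assay with Peptide 22 (1 μM) in HEPES pH 7.5, MnCl2, MgCl2, Tween 20, TCEP. HER2 WT 12.5 nM and HER2 YVMA 5 nM each used 25 μM ATP; EGFR WT 2 nM used 1 mM ATP. IC50 came from initial-velocity (0–3600 s) percent inhibition, fitted to a variable-slope model.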

For test [2], the target named is T2, HER2 WT (Homo sapiens, UniProt P04626).
T2 construct: purchased ProQinase, Freiburg, Germany ERBB2 0108-0000-1
T2 sequence (P04626 23-1255): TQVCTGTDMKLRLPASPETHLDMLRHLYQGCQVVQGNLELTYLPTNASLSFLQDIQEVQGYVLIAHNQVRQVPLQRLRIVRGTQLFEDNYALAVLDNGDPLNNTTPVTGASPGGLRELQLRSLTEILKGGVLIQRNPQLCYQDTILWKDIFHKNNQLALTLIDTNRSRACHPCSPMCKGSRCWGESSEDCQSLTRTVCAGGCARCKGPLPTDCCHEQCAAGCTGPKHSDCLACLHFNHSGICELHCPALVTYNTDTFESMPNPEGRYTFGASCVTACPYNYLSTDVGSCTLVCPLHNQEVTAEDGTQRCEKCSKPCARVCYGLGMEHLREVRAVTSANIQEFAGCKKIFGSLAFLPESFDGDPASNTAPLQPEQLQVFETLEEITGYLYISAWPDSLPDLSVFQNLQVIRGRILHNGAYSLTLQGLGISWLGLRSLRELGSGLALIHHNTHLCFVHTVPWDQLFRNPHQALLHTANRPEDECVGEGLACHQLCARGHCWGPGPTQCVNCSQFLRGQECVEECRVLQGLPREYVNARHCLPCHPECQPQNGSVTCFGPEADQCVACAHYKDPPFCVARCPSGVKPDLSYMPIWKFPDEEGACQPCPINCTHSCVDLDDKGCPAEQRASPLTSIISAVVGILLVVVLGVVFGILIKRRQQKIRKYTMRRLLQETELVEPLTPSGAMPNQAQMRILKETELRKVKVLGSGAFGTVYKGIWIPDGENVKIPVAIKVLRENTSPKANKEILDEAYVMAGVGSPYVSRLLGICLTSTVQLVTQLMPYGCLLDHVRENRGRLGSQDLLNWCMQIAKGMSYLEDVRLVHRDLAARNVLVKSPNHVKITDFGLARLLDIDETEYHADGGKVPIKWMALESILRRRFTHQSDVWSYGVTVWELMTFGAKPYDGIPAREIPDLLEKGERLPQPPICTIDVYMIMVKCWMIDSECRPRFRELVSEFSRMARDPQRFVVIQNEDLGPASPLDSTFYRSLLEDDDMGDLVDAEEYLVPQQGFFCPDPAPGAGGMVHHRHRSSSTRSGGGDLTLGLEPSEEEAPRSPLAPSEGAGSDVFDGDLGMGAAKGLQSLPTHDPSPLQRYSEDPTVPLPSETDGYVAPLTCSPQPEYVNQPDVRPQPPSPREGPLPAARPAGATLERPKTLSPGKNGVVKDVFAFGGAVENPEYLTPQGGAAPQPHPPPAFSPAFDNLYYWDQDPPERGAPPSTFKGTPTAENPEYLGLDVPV
The test is described as follows: Enzymatic assay HER2 WT (method a). It is filed as biochemical. Particulars: [HER2 WT]=12.5 nM, [ATP]=25 μM, [Peptide 22]=1 μM. The gist of the method:
as §1

T1 sequence (P00533 25-1210): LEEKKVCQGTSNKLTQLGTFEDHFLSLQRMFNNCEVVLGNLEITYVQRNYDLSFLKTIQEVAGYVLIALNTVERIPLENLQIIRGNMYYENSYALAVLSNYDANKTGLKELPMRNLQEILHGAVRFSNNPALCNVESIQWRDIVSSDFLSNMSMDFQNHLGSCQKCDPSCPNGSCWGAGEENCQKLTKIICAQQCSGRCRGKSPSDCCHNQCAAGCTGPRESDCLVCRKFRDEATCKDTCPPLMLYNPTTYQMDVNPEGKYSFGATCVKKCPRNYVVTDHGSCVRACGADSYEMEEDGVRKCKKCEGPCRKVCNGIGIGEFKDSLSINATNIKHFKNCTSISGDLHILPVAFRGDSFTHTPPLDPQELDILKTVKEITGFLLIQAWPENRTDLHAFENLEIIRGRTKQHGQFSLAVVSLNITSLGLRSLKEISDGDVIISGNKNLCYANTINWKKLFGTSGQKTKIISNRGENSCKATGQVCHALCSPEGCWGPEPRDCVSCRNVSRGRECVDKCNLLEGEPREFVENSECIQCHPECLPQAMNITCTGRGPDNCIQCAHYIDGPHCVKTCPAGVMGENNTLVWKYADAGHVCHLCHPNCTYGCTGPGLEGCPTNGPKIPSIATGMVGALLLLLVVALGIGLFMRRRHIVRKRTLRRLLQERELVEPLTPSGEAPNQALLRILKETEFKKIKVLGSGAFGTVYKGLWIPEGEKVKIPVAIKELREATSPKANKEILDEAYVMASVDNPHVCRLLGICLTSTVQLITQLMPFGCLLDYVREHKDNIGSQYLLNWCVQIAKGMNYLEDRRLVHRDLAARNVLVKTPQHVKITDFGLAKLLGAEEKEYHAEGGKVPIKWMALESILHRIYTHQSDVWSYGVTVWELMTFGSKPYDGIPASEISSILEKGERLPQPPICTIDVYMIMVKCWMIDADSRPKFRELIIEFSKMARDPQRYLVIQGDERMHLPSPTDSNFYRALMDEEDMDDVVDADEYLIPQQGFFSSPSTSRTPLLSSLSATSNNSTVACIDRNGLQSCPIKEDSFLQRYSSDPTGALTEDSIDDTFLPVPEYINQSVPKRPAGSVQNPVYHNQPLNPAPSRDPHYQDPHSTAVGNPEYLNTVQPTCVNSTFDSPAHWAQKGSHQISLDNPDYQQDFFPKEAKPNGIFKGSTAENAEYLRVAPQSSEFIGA

Turning to `Cc1ccc(Oc2ccc(Nc3ncnc4sc5c(c34)CCN(C(=O)/C=C/CNC34CCC(C#N)(CC3)CC4)C5)cc2C)cn1` [Compound 72], the IC50 – broadly, the concentration that gives 50% inhibition – is 1 to 10 µM in test [1] and below 100 nM in test [2].

Turning to `Cc1ccc(Oc2ccc(Nc3ncnc4sc5c(c34)CCN(C(=O)/C=C/CN3CCC(n4ccnc4)CC3)C5)cc2C)cn1` [Compound 62], the IC50 in test [1] was above 10 µM; in test [2], below 100 nM.

For `Cc1cc(Nc2ncnc3sc4c(c23)CCN(C(=O)/C=C/CN2CC3C(CO)C3C2)C4)ccc1Oc1ccc2ncnn2c1` (centres unmarked) [Compound 81], the figures for the IC50 in test [1] and in test [2] were above 10 µM and below 100 nM, respectively.

Take `CCOC/C=C/C(=O)N1CCc2c(sc3ncnc(Nc4ccc(Oc5ccc(C)nc5)c(C)c4)c23)C1` [Compound 96, (E)-4-ethoxy-1-(4-((3-methyl-4-((6-methylpyridin-3-yl)oxy)phenyl)amino)-5,8-dihydropyrido[4′,3′:4,5]thieno[2,3-d]pyrimidin-7(6H)-yl)but-2-en-1-one]: the figures for the IC50 in test [1] and in test [2] were above 10 µM and below 100 nM, respectively.

In the case of `Cc1ncc(Oc2ccc(Nc3ncnc4sc5c(c34)CCN(C(=O)/C=C/CN(C)C)C5)cc2C)cn1` [Compound 21, (E)-4-(dimethylamino)-1-(4-((3-methyl-4-((2-methylpyrimidin-5-yl)oxy)phenyl)amino)-5,8-dihydropyrido[4′,3′:4,5]thieno[2,3-d]pyrimidin-7(6H)-yl)but-2-en-1-one], the IC50 in test [1] is above 10 µM; in test [2], 100 to 1000 nM.

Consider `Cc1ccc(Oc2ccc(Nc3ncnc4sc5c(c34)CCN(C(=O)/C=C/CN3CCn4cc(C(F)(F)F)nc4C3)C5)cc2C)cn1` [Compound 61], for which the IC50 in test [1] was above 10 µM; in test [2], 1000 to 10000 nM.

As to `CON(C)C/C=C/C(=O)N1CCc2c(sc3ncnc(Nc4ccc(Oc5ccc(C)nc5)c(C)c4)c23)C1` [Compound 56], the IC50 was above 10 µM in test [1] and 100 to 1000 nM in test [2].

In the case of `Cc1ccc(Oc2ccc(Nc3ncnc4sc5c(c34)CCN(C(=O)/C=C/CN3CCC(O)C3)C5)cc2C)cn1` (centres unmarked) [Compound 74], the figures for the half-maximal inhibitory concentration (IC50) in test [1] and in test [2] were 1 to 10 µM and below 100 nM, respectively.

Consider `Cc1ccc(Oc2ccc(Nc3ncnc4sc5c(c34)CCN(C(=O)/C=C/CN3CCN4C(=O)CCC4C3)C5)cc2C)cn1` (centres unmarked) [Compound 58], for which the half-inhibitory concentration (IC50) in test [1] was above 10 µM; in test [2], 100 to 1000 nM.

Take `Cc1ccc(Oc2ccc(Nc3ncnc4sc5c(c34)CCN(C(=O)/C=C/CN[C@H]3CC[C@H](OC(F)F)CC3)C5)cc2C)cn1` [Compound 69]: the IC50 in test [1] is 1 to 10 µM; in test [2], below 100 nM.

Consider `Cc1ccc(Oc2ccc(Nc3ncnc4sc5c(c34)CCN(C(=O)/C=C/CNCc3ccsc3)C5)cc2C)cn1` [Compound 52], for which the IC50 is 1 to 10 µM in test [1] and below 100 nM in test [2].

As to `Cc1ccc(Oc2ccc(Nc3ncnc4sc5c(c34)CCN(C(=O)/C=C/CNC3CC3)C5)cc2C)cn1` [Compound 40], the IC50 in test [1] was 1 to 10 µM; in test [2] it was below 100 nM.

As for `Cc1ccc(Oc2ccc(Nc3ncnc4sc5c(c34)CCN(C(=O)/C=C/CN3CC=CCC3)C5)cc2C)cn1` [Compound 55], the IC50 in test [1] is above 10 µM; in test [2], below 100 nM.

For the compound `Cc1ccc(Oc2ccc(Nc3ncnc4sc5c(c34)CCN(C(=O)/C=C/CN3CC(O)C3)C5)cc2C)cn1` [Compound 53], the IC50 in test [1] was above 10 µM; in test [2] it was below 100 nM.

`Cc1ccc(Oc2ccc(Nc3ncnc4sc5c(c34)CCN(C(=O)/C=C/CNCCO)C5)cc2C)cn1` [Compound 65]: the half-maximal inhibitory concentration (IC50) in test [1] is 1 to 10 µM; in test [2], below 100 nM.

For `COc1ccc(Oc2ccc(Nc3ncnc4sc5c(c34)CCN(C(=O)/C=C/CN(C)C)C5)cc2C)cn1` [Compound 95, (E)-4-(Dimethylamino)-1-(4-((4-((6-methoxypyridin-3-yl)oxy)-3-methylphenyl)amino)-5,6-dihydropyrido[4′,3′:4,5]thieno[2,3-d]pyrimidin-7(8H)-yl)but-2-en-1-one], the IC50 in test [1] was above 10 µM; in test [2] it was below 100 nM.
